Test results taken from patent US8148099B2, “Process for determining S-nitrosothiols in biological fluids” (Universita' Di Pisa, priority 2006, dated 2012).

What was measured:
[1] = target: T1, γ-glutamyltranspeptidase (GGT) (Homo sapiens, UniProt P19440); conditions: read-out: Km constant (Michaelis-Menten kinetic constant) of GGT; substance as substrate of GGT; cited from earlier work
[2] = blood; cited from earlier work
[3] = target: T1, γ-glutamyltranspeptidase (GGT); test: Decomposition kinetics of GSNO, absorbance at 334 nm (FIG. 1); format: biochemical
Protocol: GSNO has a absorption band at 334 nm. […] In FIG. 1 in particular, the decomposition kinetics is shown of 50 uM GSNO with GGT 525 mU/mL added at the time t=0. In ordinates the absorbance at 334 nm is shown. […]
At the addition of GGT 525 mU/mL the decrease is observed of the absorbance at 334 nm that indicates the decomposition of GSNO (curve a of FIG. 1). GSNO is quantitatively decomposed, in the adopted operative conditions, in 450 sec.

T1 sequence (P19440 whole entry, species assumed): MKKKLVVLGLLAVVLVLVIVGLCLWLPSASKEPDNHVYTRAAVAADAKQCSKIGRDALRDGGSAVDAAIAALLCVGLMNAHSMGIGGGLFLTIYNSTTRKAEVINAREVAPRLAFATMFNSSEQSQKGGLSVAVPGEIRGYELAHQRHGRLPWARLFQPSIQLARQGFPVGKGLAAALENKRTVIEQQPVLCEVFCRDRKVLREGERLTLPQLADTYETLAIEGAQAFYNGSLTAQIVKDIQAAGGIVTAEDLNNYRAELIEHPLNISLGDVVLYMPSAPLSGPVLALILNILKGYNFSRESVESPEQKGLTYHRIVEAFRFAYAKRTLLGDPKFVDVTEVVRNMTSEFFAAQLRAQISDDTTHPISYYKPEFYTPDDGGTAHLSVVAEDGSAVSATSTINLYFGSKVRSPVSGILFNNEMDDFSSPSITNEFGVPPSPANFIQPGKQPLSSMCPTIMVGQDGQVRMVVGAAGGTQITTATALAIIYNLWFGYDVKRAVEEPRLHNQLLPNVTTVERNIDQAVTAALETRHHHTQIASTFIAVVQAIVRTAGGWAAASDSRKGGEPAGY

time for quantitative decomposition of GSNO ([3]; 50 uM GSNO, GGT 525 mU/mL, phosphate buffer 0.1 M pH 8.0, GlyGly 4.5 mM, Cu(SO4) 100 uM (curve a))	change of absorbance at 334 nm ([3]; adding only 50 uM of CuSO4 (curve b))	Structure (SMILES)	Km [1]	half life in the hematic area [2]
		N[C@@H](CCC(=O)N[C@@H](CS)C(=O)NCC(=O)O)C(=O)O [GSH, reduced glutathione]	5 to 10 µM	
		[N]=O [NO, Nitric oxide]		about 2 ms
450 s	no decrease is observed	N[C@@H](CCC(=O)N[C@@H](CSN=O)C(=O)NCC(=O)O)C(=O)O [GSNO, S-nitrosoglutathione]	28 µM	
